Experimental data published in US20150329501A1, “SUBSTITUTED [1,2,4]TRIAZOLE COMPOUNDS AND THEIR USE AS FUNGICIDES” (BASF SE, priority 2012, published 2015).

How the values were obtained:
[1] = system: Phytophthora infestans; type: cell-based; settings: relative growth vs active compound-free control (100%), microtiter plate, 405 nm, 7 days after inoculation
[2] = system: Botrytis cinerea; experiment: Microtest: activity against the grey mold Botrytis cinerea in the microtiterplate test (Botrci) (M2, M4, M2-1, CM3); type: cell-based; settings: relative growth vs active compound-free control (100%), microtiter plate, 405 nm, 7 days after inoculation
[3] = system: Septoria tritici; experiment: Microtest: activity against leaf blotch on wheat caused by Septoria tritici (Septtr) (M1, M6, M2-3, CM4); type: cell-based; settings: 405 nm, 7 days after inoculation; for Growth (%) at 0.5 ppm Septtr: relative growth vs active compound-free control (100%), microtiter plate; for relative growth in % of the pathogen: 31 ppm, compound-free control = 100%
[4] = system: Pyricularia oryzae; type: cell-based; settings: relative growth vs active compound-free control (100%), microtiter plate, 405 nm, 7 days after inoculation
[5] = system: Phakopsora pachyrhizi; experiment: Green house: curative control of soy bean rust on soy beans caused by Phakopsora pachyrhizi (Phakpa K2) (G2-3); type: in vivo; settings: 125 ppm, sprayed after inoculation (curative), untreated plants 90% infected
[6] = system: Botrytis cinerea; experiment: Green house: preventative fungicidal control of Botrytis cinerea on leaves of green pepper (Botrci P1) (G2-1); type: in vivo; settings: 125 ppm, sprayed the day before inoculation, untreated plants 90% infected
Procedure: Young seedlings of green pepper were grown in pots to the 4 to 5 leaf stage. […] The next day the plants were inoculated with an aqueous biomalt solution containing the spore suspension of Botrytis cinerea.

[7] = system: Alternaria solani; experiment: Green house: preventative fungicidal control of early blight on tomatoes (Alternaria solani) (Alteso P1) (G2, G2-2); settings: 125 ppm, sprayed the day before inoculation; tomato; untreated plants 70% infected
Procedure: Water was then added to total volume of 100 ml. This stock solution was diluted with the described solvent-emulsifier-water mixture to the given concentration.
Young seedlings of tomato plants were grown in pots. These plants were sprayed to run-off with an aqueous suspension, containing the concentration of active ingredient or mixture mentioned in the table below. The next day, the treated plants were inoculated with an aqueous suspension of Alternaria solani. Then the trial plants were immediately transferred to a humid chamber. After 5 days at 18 to 20° C. and a relative humidity close to 100%, the extent of fungal attack on the leaves was visually assessed as % diseased leaf area.

CC(C)(C)C(O)(Cn1cncn1)c1cccc(Oc2ccccc2)c1 (stereo not shown)
Growth (%) at 31 ppm Phytin [1]: 80% | Growth (%) at 31 ppm Botrci [2]: 76% | Growth (%) at 0.5 ppm Septtr [3]: 83% | Growth (%) at 8 ppm Pyrior [4]: 89%

CC(C)(C)C(O)(Cn1cncn1)c1cc(Cl)cc(Oc2ccccc2)c1 (stereo not shown)
Growth (%) at 8 ppm Pyrior [4]: 69%

CC(C)(C)C(O)(Cn1cncn1)c1cccc(Oc2ccc(Cl)cc2)c1 (stereo not shown) [Compound I-24]
Growth (%) at 31 ppm Phytin [1]: 42% | Growth (%) at 31 ppm Botrci [2]: 9% | Growth (%) at 0.5 ppm Septtr [3]: 13% | Growth (%) at 8 ppm Pyrior [4]: 0%

CC(C)(C)C(O)(Cn1cncn1)c1cc(Cl)cc(-c2ccc(Cl)cc2)c1 (stereo not shown) [Compound I-27]
infection (% diseased leaf area) [5]: 7%

OC(Cn1cncn1)(c1cccc(-c2ccc(Cl)cc2)c1)C(F)(F)F (stereo not shown) [Compound I-29]
infection (% diseased leaf area) [6]: 1% | infection (% diseased leaf area) [7]: 10% | relative growth in % of the pathogen [3]: 0% | infection (% diseased leaf area) [5]: 0%

C#CCC(O)(Cn1cncn1)c1cccc(-c2ccc(Cl)cc2)c1 (stereo not shown) [Compound I-30]
infection (% diseased leaf area) [6]: 1% | infection (% diseased leaf area) [7]: 1% | relative growth in % of the pathogen [3]: 0% | infection (% diseased leaf area) [5]: 1%

CC(C)(C)C(O)(Cn1cncn1)c1cc(Cl)cc(Oc2ccc(Cl)cc2)c1 (stereo not shown) [Compound I-31]
Growth (%) at 8 ppm Pyrior [4]: 0%
